Values of other authors in PMC9069326 (RSC Advances, 2019).
pKd: −log10 of the molar value.

Target: Gal-3 (Homo sapiens, UniProt P17931)
Details: cited from earlier work

Sequence of Gal-3 (P17931 whole entry, species assumed): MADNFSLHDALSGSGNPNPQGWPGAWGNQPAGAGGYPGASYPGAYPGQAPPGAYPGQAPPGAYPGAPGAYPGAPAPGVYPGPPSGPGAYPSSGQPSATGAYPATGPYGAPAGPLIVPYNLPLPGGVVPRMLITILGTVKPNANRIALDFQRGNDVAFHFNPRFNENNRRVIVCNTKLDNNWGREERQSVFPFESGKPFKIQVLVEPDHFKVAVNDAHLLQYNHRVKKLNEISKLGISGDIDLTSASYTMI

Compound	pKd
O=C[C@H](O)[C@@H](O)[C@@H](O)[C@H](O)CO [Gal, β-Galactose]	~2.00
Galβ1-4GlcNAc [LacNAc]	4.15
